The subject of assay [1] is sciatic nerve. Briefly: Axonal regeneration into acellular interpositional nerve grafts (GAP-43 profiles). Format: in vivo, rat. From the text:
Preparation of acellular nerve grafts treated with chondroitinase: Adult (180-200 g) female SPRAGUE DAWLEY rats (HARLAN, Indianapolis, Ind.) were used as nerve donors and recipient hosts. Donor rats were anesthetized with halothane and decapitated. Sciatic nerves were exposed through a gluteal muscle-splitting incision and isolated free of underlying fascia. A 15-mm nerve segment was excised rostral to the bifurcation into common peroneal and tibial nerves. The segments were rinsed with cold sterile Ringer's solution, stabilized by pinning the ends to a thin plastic support, and transferred to a cryogenic vial. The vials were submerged in liquid nitrogen for 2 minutes and then transferred to a 37° C. water bath for 2 minutes. This freeze/thaw cycle was repeated, yielding acellular nerve grafts that were then stored in liquid nitrogen. On the day before grafting, the nerve grafts were warmed to room temperature and incubated in 100 μl phosphate buffered saline pH 7.4 (PBS) containing 2 units/ml chondroitinase ABC (SIGMA, St. Louis, Mo.) or in PBS (vehicle) only for 16 hours at 37° C. The grafts were rinsed twice with Ringer's and kept on ice prior to use. The chondroitinase ABC preparation was highly purified and stated by the manufacturer to be essentially free of protease activity.
Interpositional nerve grafting for chondroitinase experiments. Twelve rats received bilateral acellular nerve grafts, one chondroitinase-treated and one vehicle-treated graft. Host rats were deeply anesthetized using xylazine (15 mg/kg, i.m.) and ketamine (110 mg/kg, i.p.). The sciatic nerve was exposed and supported by a plastic insert placed between the nerve and underlying tissue. […]
The main grafts were sectioned serially on the transverse plane in recorded measure to assess the extent of axonal growth by microscopy. […] GAP-43-positive axon profiles were scored using IMAGE-PRO PLUS software (MEDIA CYBERNETICS, Silver Springs, Md.).
(§1) Immunocytochemistry. Axonal regeneration was assessed by GAP-43 immunofluorescence and digital image analysis. […]

Assay [2] relates to sciatic nerve. Put plainly: Axonal regeneration after bilateral sciatic nerve crush injury (axonotmesis). Format: in vivo, rat. The note with it: 1 U in 2 μl; 2 days after injury; 6 nerves per condition. As to the method: Surgical procedures for nerve transection and nerve crush experiments. All surgical procedures were performed according to Institutional Animal Care and Use Committee (IACUC) approved protocols. Young adult SPRAGUE DAWLEY rats (HARLAN Indianapolis, Ind.) were deeply anesthetized with xylazine (15 mg/kg, i.m.) followed by ketamine-HCl (110 mg/kg, i.p.). Six animals received bilateral nerve crush injuries. Sciatic nerves were exposed and then crushed with firm pressure for thirty seconds with a DUMONT #5 forceps at a site 4 mm distal to the tendon of the internal obdurator. The crush site was marked with an epineurial suture. In a separate set of experiments, eight rats received bilateral sciatic nerve transection injuries using serrated scissors. The proximal and distal stumps were […] by epineurial neurorrhaphy using 9-0 ETHILON sutures. Fibrin glue (fibrinogen and thrombin) was then applied to stabilize the union. […]
as §1
The hypothesis that chondroitinase treatment improves axonal growth through the site of nerve crush injury was tested. […] Regenerating axons were labeled by GAP-43 immunofluorescence and scored by digital image analysis. […]

On to chondroitinase ABC, for which, in assay [1] (4-day grafts, 3 animals), the “axonal penetration vs control at 0.3 mm from the host-graft interface” value is recorded as “five-fold greater”. For the same substance, the “average number of axons (GAP-43-immunopositive profiles) entering grafts vs control grafts” value in assay [1] (8-day grafts, 9 rats with bilateral grafts) was “more than three-fold greater”. Also, the “propensity of axons to grow within basal laminae” value in assay [1] (8-day grafts, GAP-43 and laminin double label) is “unaltered”. Also, the “axonal regeneration after nerve crush injury (GAP-43 immunoreactivity) vs vehicle” value in assay [2] is listed as “not significantly effected”.

For the origin of these results see patent US7732200B2, “Materials and methods for nerve grafting, selection of nerve grafts, and in vitro nerve tissue culture” (University of Florida Research Foundation, Inc., priority 2001, dated 2010).
